Reference: patent publication US10047078B2, “Aminothiazole compounds” (National Health Research Institutes, priority 2016, dated 2018)

What was measured:
Mia-paca2 tumor model = experiment: Xenograft efficacy, Mia-paca2 tumor model; assay type: in vivo, nude mice; conditions: PO 25 mg/kg
Description: (§1) Male nude mice (Nu-Fox1^nu) of 8 weeks old were purchased from BioLASCO (Taipei, Taiwan, R.O.C.). Human colorectal Colo205, pancreatic Mia-PaCa 2 tumor cells or MOLM-13, 32D-ITD/D835Y leukemia cells were inoculated subcutaneously at 1×10^6 cells each in the nude mice. All human cancer cells were detected as free of Mycoplasma spp before they were injected into animals. The tumor cells grow as xenograft tumors and the tumor size reached approximately 200-250 mm^3 in the nude mice ready for dose treatments. Test compounds were dissolved in 20% 2-hydroxypropy-β-cyclodextrin individually for oral gavage administrations to the nude mice. The tumor-bearing mice were treated with test compounds at various doses, 5 times a week for 2 weeks. Tumor sizes were measured by an electronic caliper and calculated with the formula: tumor size=length×width^2/2. Tumor size and animal body weight were measured twice a week before and after the tumor cell inoculation throughout the observation period. Uses of animals and experimental procedures thereof were approved by the Institutional Animal Care and Use Committee (IACUC) of the National Health Research Institutes.

[1] = test system: xenografts FLT3-ITD-D835Y model; experiment: Xenograft efficacy, FLT3-ITD-D835Y model; assay type: in vivo; conditions: FLT3-ITD-D835Y xenograft in nude mice, PO 25 mg/kg
Description: as §1

[2] = test system: xenografts Mia-paca2 nude mice; experiment: In vivo toxicity study, Mia-paca2 model; conditions: PO 25 mg/kg once daily; for Mortality (nude mice n = 6): 5 on 2 off × 2
Description: as §1, with “All human cancer cells were detected as free of Mycoplasma spp before they were injected into animals.” left out
(§2) Nine weeks old athymic nu/nu nude mice were administered orally at a once daily dose of 25, 50, 100, or 150 mg/kg on days 1-5 and 8-12.

[3] = test system: xenografts FLT3-ITD-D835Y nude mice; experiment: In vivo toxicity study, FLT3-ITD-D835Y model; conditions: PO 25 mg/kg once daily; for Mortality (nude mice n = 8): 5 on 2 off × 2
Description: as §1
(§3) Compounds of formula (I) were tested in animals for their in vivo efficacy following the procedure described in EXAMPLE 24. Nine weeks old athymic nu/nu nude mice were administered orally at a once daily dose of 25, 50, 100, or 150 mg/kg on days 1-5 and 8-12.

[4] = Pharmacokinetics and oral bioavailability in mice; conditions: for AUC(0-inf) / bioavailability: male, ICR, mouse, plasma
Description: (§7) Male ICR mice weighing 25-35 g each were obtained from BioLASCO (Taiwan Co., Ltd, Ilan, Taiwan). The animal studies were performed according to the National Health Research Institutes (NHRI) institutional animal care and committee-approved procedures. […] A single dose at 10 mg/kg of each of these four compounds was administered orally (PO) to a total of 27 male mice. Each mouse was given 100 mL of the IV dosing solution by intravenous tail-vein injection and 200 mL of the PO dosing solution by oral gavage. Animals that received the IV dose were not fasted and that received the PO dose were fasted overnight prior to dosing. At 0 (immediately before dosing), 2 (IV only), 5 (IV only), 15 and 30 min and at 1, 2, 4, 6, 8, 16 and 24 h after dosing, blood (˜500 mL) was collected from groups of 3 mice at each time point by cardio puncture and stored in ice (0-4° C.). Ethylenediaminetetraacetic acid (EDTA) was used as the anticoagulant. Plasma was separated from the blood by centrifugation (3000 rpm for 15 minutes at 4° C. in a Beckman Model Allegra 6R centrifuge) and stored in a freezer (−20° C.). Control plasma was obtained from mice receiving no compound for use of constructing the standard curve and for the preparation of quality control (QC) samples. All samples were analyzed for the parent compound by LC-MS/MS.
(§8) Oral bioavailability, presented as a percentage (F %), was calculated from dividing the average area under the curve (AUC) value of a compound after PO dosing by the average AUC value of the compound after IV dosing following dose normalization.

Colo205 xenografts = experiment: Xenograft efficacy, Colo205 model; assay type: in vivo; conditions: Colo205 xenografts in nude mice, 5 times a week for 2 weeks
Description: as §1

[5] = test system: xenografts colo205 nude mice; experiment: In vivo toxicity study, colo205 model; conditions: for Mortality (nude mice n = 6): 5 on 2 off × 2; for Tolerability: PO once daily, Compounds 1, 2, 3, 4, 6 at 50, 50, 100, 150 and 25 mg/kg
Description: as §1, with “All human cancer cells were detected as free of Mycoplasma spp before they were injected into animals.” left out
as §2

in vivo = conditions: male, ICR, mouse
Description: as §7, §8

ABL1 T315I = ABL1 T315I (Homo sapiens, UniProt P00519, T315I); experiment: SelectScreen biochemical kinase profiling; assay type: binding; conditions: 100 nM, read-out: Inhibition (% of control) at 100 nM
Description: (§4) Kinase inhibition data were obtained from SelectScreen® Biochemical Kinase Profiling Service.
(§5) More specifically, test compounds were screened in 160 nL of a 1% DMSO solution in the well of a 384-well plate; kinase/antibody mixtures (8 μL) were diluted to a 2-fold working concentration in an appropriate kinase buffer (3.84 μL) and a 4-fold AlexaFluor® labeled tracer (4 μL) was prepared in the kinase buffer; incubation of test solutions was conducted at room is temperature for 60 minutes; and readout on a fluorescence plate reader was recorded and analyzed.

DDR1 = DDR1 (Homo sapiens, UniProt Q08345); experiment: SelectScreen biochemical kinase profiling; assay type: binding; conditions: 100 nM, read-out: Inhibition (% of control) at 100 nM
Description: as §4, §5

KIT = KIT (Homo sapiens, UniProt P10721); experiment: SelectScreen biochemical kinase profiling; assay type: binding; conditions: 100 nM, read-out: Inhibition (% of control) at 100 nM
Description: as §4, §5

PDGFR A = PDGFR A (Homo sapiens, UniProt P16234); experiment: SelectScreen biochemical kinase profiling; assay type: binding; conditions: 100 nM, read-out: Inhibition (% of control) at 100 nM
Description: as §4, §5

PDGFR B = PDGFR B (Homo sapiens, UniProt P09619); experiment: SelectScreen biochemical kinase profiling; assay type: binding; conditions: 100 nM, read-out: Inhibition (% of control) at 100 nM
Description: as §4, §5

RET = RET (Homo sapiens, UniProt P07949); experiment: SelectScreen biochemical kinase profiling; assay type: binding; conditions: 100 nM, read-out: Inhibition (% of control) at 100 nM
Description: as §4, §5

SRC = SRC (Homo sapiens, UniProt P12931); experiment: SelectScreen biochemical kinase profiling; assay type: binding; conditions: 100 nM, read-out: Inhibition (% of control) at 100 nM
Description: as §4, §5

TRK A = TRK A (Homo sapiens, UniProt P04629); experiment: SelectScreen biochemical kinase profiling; assay type: binding; conditions: 100 nM, read-out: Inhibition (% of control) at 100 nM
Description: as §4, §5

TRK B = TRK B (Homo sapiens, UniProt Q16620); experiment: SelectScreen biochemical kinase profiling; assay type: binding; conditions: 100 nM, read-out: Inhibition (% of control) at 100 nM
Description: as §4, §5

32D-ITD/D835F cells = experiment: MTS cell viability, 32D cells expressing FLT3-ITD mutant; assay type: cell-based, Murine; conditions: 72-h incubation
Description: (§6) The five leukemic 32D cell lines were purchased from American Type Culture Collection (ATCC, Manassas, Va., USA). Murine pro-B lymphocyte 32D cell lines were stably transfected with expression vectors that encoded human FLT3 containing an ITD mutation (32D-ITD cells), ITD and D835Y (32D-ITD/D835Y cells), ITD and D835V (32D-ITD/D835V cells), ITD and D835F (32D-ITD/D835F cells), and ITD and F691L (32D-ITD/F691L cells) mutations, which lead to constitutive activation of the FLT3 downstream signaling proteins. The cell viability was assessed with the MTS assay described in PLoS One, 2014, 9, e97116. 32D-ITD/D835Y, 32D-ITD/D835V, 32D-ITD/D835F, 32D-ITD/F691L, and 32D-ITD/F691I cells were seeded in 96-well plates at 1×10^4 cells/mL (100 μL per well) for 24-h incubation. Test compounds (at various concentrations in dimethyl sulfoxide (DMSO) were subsequently added to the culture medium for 72-h incubation. The cell viability was determined by the MTS assay (Promega, Madison, Wis., USA).

32D-ITD/F691I cells = experiment: as above; assay type: cell-based, Murine; conditions: 72-h incubation
Description: as §6

32D-ITD/F691L cells = experiment: as above; assay type: cell-based, Murine; conditions: 72-h incubation
Description: as §6

MOLM-13 xenografts = experiment: Xenograft efficacy, MOLM-13 model; assay type: in vivo, nude mice; conditions: starting tumor size ~250 mm^3
Description: as §1

[6] = test system: xenografts MOLM-13 nude mice; experiment: In vivo toxicity study, MOLM-13 model; conditions: for Mortality (nude mice n = 6 or 7): 5 on 2 off × 2; for Tolerability: PO once daily, Compound 2 at 25 and 50, Compound 4 at 150 mg/kg
Description: as §1, §3

RET, sequence (P07949 29-1114): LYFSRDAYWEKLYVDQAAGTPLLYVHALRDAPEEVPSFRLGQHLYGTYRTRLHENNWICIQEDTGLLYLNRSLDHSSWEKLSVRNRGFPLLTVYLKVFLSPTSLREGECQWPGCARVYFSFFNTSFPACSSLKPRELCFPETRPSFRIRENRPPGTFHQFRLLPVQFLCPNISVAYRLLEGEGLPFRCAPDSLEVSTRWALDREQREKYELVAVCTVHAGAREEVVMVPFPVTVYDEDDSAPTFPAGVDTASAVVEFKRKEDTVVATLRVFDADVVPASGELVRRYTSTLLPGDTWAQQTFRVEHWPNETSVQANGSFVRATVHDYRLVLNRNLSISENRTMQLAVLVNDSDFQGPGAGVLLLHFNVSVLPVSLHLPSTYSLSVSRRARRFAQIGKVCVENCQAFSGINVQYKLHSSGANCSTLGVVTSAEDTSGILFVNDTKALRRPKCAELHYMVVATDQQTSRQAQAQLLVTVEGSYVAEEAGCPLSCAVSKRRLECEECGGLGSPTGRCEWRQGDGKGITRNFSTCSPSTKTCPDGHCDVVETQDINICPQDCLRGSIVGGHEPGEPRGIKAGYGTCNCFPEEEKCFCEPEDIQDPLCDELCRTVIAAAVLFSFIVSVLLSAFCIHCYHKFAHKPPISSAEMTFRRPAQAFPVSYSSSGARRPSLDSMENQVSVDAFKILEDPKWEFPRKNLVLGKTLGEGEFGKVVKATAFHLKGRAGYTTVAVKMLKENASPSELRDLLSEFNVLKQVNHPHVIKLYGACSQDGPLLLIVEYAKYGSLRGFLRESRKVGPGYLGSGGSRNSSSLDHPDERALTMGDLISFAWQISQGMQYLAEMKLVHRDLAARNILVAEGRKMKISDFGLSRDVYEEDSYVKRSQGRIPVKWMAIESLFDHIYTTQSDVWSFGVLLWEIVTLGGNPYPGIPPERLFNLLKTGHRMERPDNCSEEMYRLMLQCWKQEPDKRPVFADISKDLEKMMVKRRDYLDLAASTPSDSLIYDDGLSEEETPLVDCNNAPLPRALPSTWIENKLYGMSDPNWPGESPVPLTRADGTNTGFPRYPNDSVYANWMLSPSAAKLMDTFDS
KIT, sequence (P10721 26-976): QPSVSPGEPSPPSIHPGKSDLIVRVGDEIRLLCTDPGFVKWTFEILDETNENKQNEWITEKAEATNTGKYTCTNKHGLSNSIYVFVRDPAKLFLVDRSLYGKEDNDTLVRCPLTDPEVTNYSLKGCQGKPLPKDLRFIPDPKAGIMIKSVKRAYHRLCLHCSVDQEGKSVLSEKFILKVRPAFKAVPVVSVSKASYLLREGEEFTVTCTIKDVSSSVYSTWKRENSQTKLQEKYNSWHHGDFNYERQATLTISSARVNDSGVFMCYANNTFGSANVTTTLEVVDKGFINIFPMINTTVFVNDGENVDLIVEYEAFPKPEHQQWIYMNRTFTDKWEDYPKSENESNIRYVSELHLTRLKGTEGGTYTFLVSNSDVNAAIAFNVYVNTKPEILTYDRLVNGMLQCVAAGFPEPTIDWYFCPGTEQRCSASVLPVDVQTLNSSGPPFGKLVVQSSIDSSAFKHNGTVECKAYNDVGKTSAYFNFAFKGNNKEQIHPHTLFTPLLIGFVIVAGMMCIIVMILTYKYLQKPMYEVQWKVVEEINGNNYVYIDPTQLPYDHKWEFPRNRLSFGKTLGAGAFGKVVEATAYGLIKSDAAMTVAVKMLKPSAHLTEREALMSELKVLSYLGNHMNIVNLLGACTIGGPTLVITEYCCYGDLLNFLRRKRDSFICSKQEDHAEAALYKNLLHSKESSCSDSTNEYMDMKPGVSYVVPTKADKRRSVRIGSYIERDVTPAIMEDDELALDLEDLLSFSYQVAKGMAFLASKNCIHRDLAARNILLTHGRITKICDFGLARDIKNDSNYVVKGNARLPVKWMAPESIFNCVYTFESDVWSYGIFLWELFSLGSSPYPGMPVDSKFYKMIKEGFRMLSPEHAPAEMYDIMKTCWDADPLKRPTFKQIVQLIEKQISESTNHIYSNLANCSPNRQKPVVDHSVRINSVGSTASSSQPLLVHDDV
TRK A, sequence (P04629 33-796): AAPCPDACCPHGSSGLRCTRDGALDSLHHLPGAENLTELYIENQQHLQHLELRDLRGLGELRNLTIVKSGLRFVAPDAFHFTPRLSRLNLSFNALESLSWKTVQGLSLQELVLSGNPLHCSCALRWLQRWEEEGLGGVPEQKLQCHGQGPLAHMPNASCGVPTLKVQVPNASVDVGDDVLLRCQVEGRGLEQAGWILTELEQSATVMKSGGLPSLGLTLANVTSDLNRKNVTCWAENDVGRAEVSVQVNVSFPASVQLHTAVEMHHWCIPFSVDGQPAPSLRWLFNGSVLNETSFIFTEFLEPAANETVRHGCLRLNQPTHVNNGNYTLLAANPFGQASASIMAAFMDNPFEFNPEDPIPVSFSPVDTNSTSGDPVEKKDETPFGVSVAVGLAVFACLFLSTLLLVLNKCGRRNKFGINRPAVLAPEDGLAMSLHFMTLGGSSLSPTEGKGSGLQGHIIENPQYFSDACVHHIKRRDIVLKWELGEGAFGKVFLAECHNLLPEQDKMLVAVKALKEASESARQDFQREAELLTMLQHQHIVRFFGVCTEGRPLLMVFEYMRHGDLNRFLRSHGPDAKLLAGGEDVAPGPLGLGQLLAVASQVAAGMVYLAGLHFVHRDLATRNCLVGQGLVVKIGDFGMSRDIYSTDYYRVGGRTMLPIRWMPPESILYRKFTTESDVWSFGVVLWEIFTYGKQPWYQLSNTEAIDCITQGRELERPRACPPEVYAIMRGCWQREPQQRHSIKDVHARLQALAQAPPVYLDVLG
DDR1, sequence (Q08345 19-913): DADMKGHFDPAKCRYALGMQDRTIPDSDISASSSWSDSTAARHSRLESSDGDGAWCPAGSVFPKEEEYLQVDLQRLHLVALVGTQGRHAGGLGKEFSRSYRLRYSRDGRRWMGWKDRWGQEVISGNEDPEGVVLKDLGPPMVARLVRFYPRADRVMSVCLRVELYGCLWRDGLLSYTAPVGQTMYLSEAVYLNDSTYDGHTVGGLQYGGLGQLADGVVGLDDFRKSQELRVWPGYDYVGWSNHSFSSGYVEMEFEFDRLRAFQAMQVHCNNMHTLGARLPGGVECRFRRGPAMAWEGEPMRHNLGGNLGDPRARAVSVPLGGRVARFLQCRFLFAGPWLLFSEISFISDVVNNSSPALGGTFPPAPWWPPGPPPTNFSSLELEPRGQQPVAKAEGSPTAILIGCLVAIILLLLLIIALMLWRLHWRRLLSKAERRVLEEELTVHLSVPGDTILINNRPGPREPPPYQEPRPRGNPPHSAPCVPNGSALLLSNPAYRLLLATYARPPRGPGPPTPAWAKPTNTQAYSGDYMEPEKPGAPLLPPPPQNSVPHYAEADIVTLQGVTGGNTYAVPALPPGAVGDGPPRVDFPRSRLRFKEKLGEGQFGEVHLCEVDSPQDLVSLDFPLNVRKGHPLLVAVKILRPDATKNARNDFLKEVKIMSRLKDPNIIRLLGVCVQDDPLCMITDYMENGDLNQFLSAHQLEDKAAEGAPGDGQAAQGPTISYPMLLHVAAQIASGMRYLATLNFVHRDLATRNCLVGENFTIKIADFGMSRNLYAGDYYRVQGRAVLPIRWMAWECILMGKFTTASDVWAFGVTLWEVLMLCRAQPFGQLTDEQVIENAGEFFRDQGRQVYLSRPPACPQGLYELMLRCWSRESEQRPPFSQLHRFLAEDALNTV
PDGFR B, sequence (P09619 33-1106): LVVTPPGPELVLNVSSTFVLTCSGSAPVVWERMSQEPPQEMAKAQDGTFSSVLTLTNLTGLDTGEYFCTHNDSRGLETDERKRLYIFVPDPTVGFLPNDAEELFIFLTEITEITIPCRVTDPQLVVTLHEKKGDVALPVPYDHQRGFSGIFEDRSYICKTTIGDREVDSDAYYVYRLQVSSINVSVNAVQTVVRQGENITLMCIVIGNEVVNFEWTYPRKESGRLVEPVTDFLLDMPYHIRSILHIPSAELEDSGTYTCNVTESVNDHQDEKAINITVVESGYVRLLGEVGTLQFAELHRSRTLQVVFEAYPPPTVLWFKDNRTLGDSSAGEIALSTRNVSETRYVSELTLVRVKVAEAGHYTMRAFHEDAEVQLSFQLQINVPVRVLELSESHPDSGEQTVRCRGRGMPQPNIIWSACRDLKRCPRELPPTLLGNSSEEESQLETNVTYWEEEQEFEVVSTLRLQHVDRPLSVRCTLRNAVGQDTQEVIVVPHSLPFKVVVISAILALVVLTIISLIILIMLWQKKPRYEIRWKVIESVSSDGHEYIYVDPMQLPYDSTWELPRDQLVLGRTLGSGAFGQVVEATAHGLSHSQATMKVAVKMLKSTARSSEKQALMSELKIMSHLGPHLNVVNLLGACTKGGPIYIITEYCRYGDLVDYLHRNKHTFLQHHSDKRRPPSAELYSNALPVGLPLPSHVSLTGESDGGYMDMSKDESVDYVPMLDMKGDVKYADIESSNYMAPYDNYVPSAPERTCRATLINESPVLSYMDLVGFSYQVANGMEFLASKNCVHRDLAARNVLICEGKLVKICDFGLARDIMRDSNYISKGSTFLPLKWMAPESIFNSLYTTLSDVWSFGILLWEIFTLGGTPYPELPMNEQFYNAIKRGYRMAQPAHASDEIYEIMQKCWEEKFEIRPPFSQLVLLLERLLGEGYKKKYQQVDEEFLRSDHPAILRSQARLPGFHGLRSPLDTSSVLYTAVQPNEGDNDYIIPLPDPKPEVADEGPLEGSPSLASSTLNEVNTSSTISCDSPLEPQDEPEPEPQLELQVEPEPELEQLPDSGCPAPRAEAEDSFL

Row | Structure (SMILES) | Day 18 TGI (Mia-paca2 tumor model) [%] | Day 12 tumor regression [1] [%] | Tolerability [2] | Mortality (nude mice n = 6) [2] | Tolerability [3] | Mortality (nude mice n = 8) [3] | AUC(0-inf) ([4]; iv, 2 mg/kg) [ng·h/mL] | AUC(0-inf) ([4]; po, 10 mg/kg) [ng·h/mL] | bioavailability ([4]; po, 10 mg/kg) [%] | Tolerability [5] | inhibition at 0.1 µM (DDR1) [%] | inhibition at 0.1 µM (KIT) [%] | inhibition at 0.1 µM (PDGFR A) [%] | inhibition at 0.1 µM (PDGFR B) [%] | inhibition at 0.1 µM (RET) [%] | inhibition at 0.1 µM (SRC) [%] | inhibition at 0.1 µM (TRK A) [%] | inhibition at 0.1 µM (TRK B) [%] | GI50 (32D-ITD/D835F cells) [µM] | GI50 (32D-ITD/D835F cells; Mus musculus, 32D, 72 h) [µM] | also measured
1 | CCc1cc(NC(=O)Nc2ccc(-c3cnc(Nc4cc(N5CCN(CCF)CC5)ncn4)s3)cc2)no1 [Compound 5, 1-(5-Ethylisoxazol-3-yl)-3-(4-(2-((6-(4-(2-fluoroethyl)piperazin-1-yl)pyrimidin-4-yl)amino)thiazol-5-yl)phenyl)urea] | 65 | 22 | well tolerated | 0/6 (25 mg/kg) | well tolerated | 0/8 (25 mg/kg) | 2720 | 8240 | 67 | – | – | – | – | – | – | – | – | – | – | – | –
2 | CCc1cc(NC(=O)Nc2ccc(-c3cnc(Nc4cc(N5CCN(CCF)CC5)nc(C)n4)s3)cc2)no1 [Compound 6, 1-(5-Ethylisoxazol-3-yl)-3-(4-(2-((6-(4-(2-fluoroethyl)piperazin-1-yl)-2-methylpyrimidin-4-yl)amino)thiazol-5-yl)phenyl)urea] | 68 | – | well tolerated | 0/6 (25 mg/kg) | – | – | – | – | – | well tolerated | – | – | – | – | – | – | – | – | – | – | Day 18 TGI (Colo205 xenografts; PO 25 mg/kg, 25 mg/kg): ~80%; Mortality (nude mice n = 6) ([5]; PO 25 mg/kg once daily): 0/6 (25 mg/kg); AUC(0-inf) (in vivo; iv, 2 mg/kg): 1840 ng·h/mL; AUC(0-inf) (in vivo; po, 10 mg/kg): 7580 ng·h/mL; bioavailability (in vivo; po, 10 mg/kg): 89%
3 | CCc1cc(NC(=O)Nc2ccc(-c3cnc(Nc4cc(OCCN5CCOCC5)ncn4)s3)cc2)no1 [Compound 3, 1-(5-Ethylisoxazol-3-yl)-3-(4-(2-((6-(2-morpholinoethoxy)pyrimidin-4-yl)amino)thiazol-5-yl)phenyl)urea] | – | – | – | – | – | – | 2070 | 11400 | 96 | well tolerated | 77 | 85 | 79 | 92 | 56 | 66 | 69 | 73 | – | – | inhibition at 0.1 µM (ABL1 T315I): 15%; Day 18 TGI (Colo205 xenografts; PO 100 mg/kg, 100 mg/kg): ~80%; Mortality (nude mice n = 6) ([5]; PO 100 mg/kg once daily): 0/6 (100 mg/kg)
4 | CCc1cc(NC(=O)Nc2ccc(-c3cnc(Nc4cc(N5CCN(CC)CC5)ncn4)s3)cc2)no1 [Compound 2, 1-(5-Ethylisoxazol-3-yl)-3-(4-(2-((6-(4-ethylpiperazin-1-yl)pyrimidin-4-yl)amino)thiazol-5-yl)phenyl)urea] | – | 34 | – | – | well tolerated | 0/8 (25 mg/kg) | 1440 | 2800 | – | well tolerated | 80 | 67 | 89 | 80 | 94 | 79 | 60 | 72 | 0.0058 | < 0.006 | GI50 (32D-ITD/F691I cells; Mus musculus, 32D, 72 h): 0.158 µM; GI50 (32D-ITD/F691L cells; Mus musculus, 32D, 72 h): 0.014 µM; Day 18 TGI (Colo205 xenografts; PO 50 mg/kg, 50 mg/kg): ~80%; Day 25 tumor size (MOLM-13 xenografts; PO 25 mpk): 270 mm^3; Day 25 tumor size (MOLM-13 xenografts; PO 50 mpk): 53 mm^3; Mortality (nude mice n = 6) ([5]; PO 50 mg/kg once daily): 0/6 (50 mg/kg); Mortality (nude mice n = 6 or 7) ([6]; PO 25 or 50 mg/kg once daily): 0/6; Tolerability [6]: well tolerated; F (%) oral bioavailability ([4]; mice, PO 10 mg/kg vs IV 2 mg/kg, dose normalized): 38%
5 | CCc1cc(NC(=O)Nc2ccc(-c3cnc(Nc4cc(N5CCN(CCO)CC5)ncn4)s3)cc2)no1 [Compound 4, 1-(5-Ethylisoxazol-3-yl)-3-(4-(2-((6-(4-(2-hydroxyethyl)piperazin-1-yl)pyrimidin-4-yl)amino)thiazol-5-yl)phenyl)urea] | – | – | – | – | – | – | – | – | – | well tolerated | – | – | – | – | – | – | – | – | 0.0055 | < 0.006 | GI50 (32D-ITD/F691I cells): 0.019 µM; GI50 (32D-ITD/F691I cells; Mus musculus, 32D, 72 h): < 0.02 µM; GI50 (32D-ITD/F691L cells): 0.012 µM; GI50 (32D-ITD/F691L cells; Mus musculus, 32D, 72 h): < 0.02 µM; Day 18 TGI (Colo205 xenografts; PO 150 mg/kg, 150 mg/kg): ~80%; Day 25 tumor size (MOLM-13 xenografts; PO 150 mpk): 193 mm^3 (150 mpk); Mortality (nude mice n = 6) ([5]; PO 150 mg/kg once daily): 0/6 (150 mg/kg); Mortality (nude mice n = 6 or 7) ([6]; PO 150 mg/kg once daily): 0/6; Tolerability [6]: well tolerated
